Holding throughout (test): growth of human tumour cells (NCI), 48 h
Experiment [1] concerns HCC 2998.
Experiment [2] has as its system NCI-H23.
Experiment [3] relates to A549.
Experiment [4] concerns SK-MEL-28.
In experiment [5] the test system is RXF 393.
Experiment [6] concerns 786-0.
The subject of experiment [7] is NCI-H460.
Experiment [8] relates to HOP-92.
Experiment [9] has as its system HCT-15.
The test system of experiment [10] is SK-OV-3.
Experiment [11] relates to EKVX.
Experiment [12] deals with OVCAR-8.
In experiment [13] the test system is OVCAR-3.
Experiment [14] deals with MOLT-4.
For experiment [15], the system named is NCI-H226.
In experiment [16] the test system is TK-10.
Experiment [17] concerns UO-31.
For experiment [18], the system named is A498.
The test system of experiment [19] is HCT-116.

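The compound was tested at five concentrations on cells cultured in 96-well plates, with a 48-hour exposure period. GI50 = concentration required for 50% inhibition of growth.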 Activity calls are given as the source filed them. No stated cut-off is given here; in the data, active = GI50 up to about 1.1 µM and inactive = higher. Bounds are passed on as bounds.

For `O=C1NCCS(=O)(=O)N[C@@H](CC2=CC=CCC2)C(=O)N2CCCC12` (stereo partly specified), the GI50 in experiment [1], in experiment [2], in experiment [3], in experiment [4], in experiment [5] and in [6] was > 100 µM (inactive) throughout. In addition, the GI50 in experiment [7] was > 100 µM (inactive); in experiment [8], > 100 µM (inactive); in experiment [9] it was > 100 µM; in experiment [10] it was > 100 µM (inactive); in experiment [11], > 100 µM (inactive); in experiment [12], > 100 µM (inactive). Also, the GI50 in [13], in experiment [14], in [15], in experiment [16], in experiment [17] and in [18] was > 100 µM (inactive) each time. Besides, the GI50 in experiment [19] was > 100 µM (inactive).
For `O=C(O)CC[C@H](NC(=O)c1ccc(-n2nc3ccc(=O)cc-3[nH]c2=O)cc1)C(=O)O`, the GI50 in [1], in experiment [2], in experiment [3], in experiment [4], in experiment [5] and in [6] was > 100 µM (inactive) throughout. In addition, the GI50 is > 100 µM (inactive) in experiment [7]; > 100 µM (inactive) in experiment [8]; > 100 µM in experiment [9]; > 100 µM (inactive) in experiment [11]; > 100 µM (inactive) in experiment [12]; > 100 µM (inactive) in [13]. Moreover, the GI50 in [14], in [16], in [17], in experiment [18] and in experiment [19] was > 100 µM (inactive) each time.
Consider `CC1(C)COC2(OC1)C1=NS(=O)(=O)CC13CCC2C3(C)C` (stereo unspecified), for which the GI50 in experiment [2], in [3], in [4], in experiment [5], in [6] and in experiment [7] was > 100 µM (inactive) throughout. For the same compound, the GI50 was > 100 µM (inactive) in [8]; > 100 µM in experiment [9]; > 100 µM (inactive) in experiment [10]; > 100 µM (inactive) in experiment [11]; > 100 µM (inactive) in experiment [12]; > 100 µM (inactive) in [13]. Also, the GI50 in experiment [14], in [15], in experiment [16], in [17], in [18] and in [19] was > 100 µM (inactive) in each case.
On to `COc1cccc(OC)c1/C=N\N1C(=O)c2ccccc2C1=O`, for which the GI50 in experiment [1] is 29.5 µM (inactive); in [2] it was 38.5 µM (inactive); in experiment [3], > 100 µM (inactive); in experiment [4], 77.6 µM (inactive); in experiment [5], 26.7 µM (inactive); in experiment [6], 31.3 µM (inactive). Further, the GI50 in experiment [7] is 43.2 µM (inactive); in [8] it was 47.2 µM (inactive); in experiment [9], 32.1 µM; in experiment [11], > 100 µM (inactive); in experiment [12], 29.6 µM (inactive); in experiment [13] it was 19.9 µM (inactive). The GI50 was 40.6 µM (inactive) in [14]; > 100 µM (inactive) in experiment [15]; 57.7 µM (inactive) in [16]; 55.2 µM (inactive) in [17]; > 100 µM (inactive) in experiment [18]; 33.5 µM (inactive) in [19].
`CC1OC(n2cc(F)c(=O)[nH]c2=O)CCC1=O` (stereo unspecified): the GI50 in [1] was 5.98 µM (inactive); in experiment [3] it was 46.7 µM (inactive); in experiment [5], > 100 µM (inactive); in experiment [6] it was > 100 µM (inactive); in experiment [7], 32.2 µM (inactive); in experiment [8] it was > 100 µM (inactive). Further, the GI50 in experiment [9] is 95.3 µM; in [10], > 100 µM (inactive); in [12] it was > 100 µM (inactive); in experiment [14], > 100 µM (inactive); in experiment [15], > 100 µM (inactive); in experiment [16], > 100 µM (inactive). The GI50 in [17] is 71.8 µM (inactive); in experiment [18] it was 30.4 µM (inactive); in experiment [19], 44.9 µM (inactive).
Consider `CC#CC1C(OC(=O)c2ccccc2)CCCC1(CI)N=[N+]=[N-]` (stereo unspecified), for which the GI50 in experiment [1] was 90.2 µM (inactive); in experiment [2], 28.3 µM (inactive); in experiment [3] it was 58.6 µM (inactive); in experiment [5] it was 52 µM (inactive); in [6], > 100 µM (inactive); in [7] it was 60.7 µM (inactive). Also, the GI50 in experiment [8] is 92.7 µM (inactive); in experiment [9], 45.2 µM; in experiment [10], > 100 µM (inactive); in [11], 55.1 µM (inactive); in [12] it was 59.7 µM (inactive); in [13], > 100 µM (inactive). For the same compound, the GI50 in experiment [14] is 13.6 µM (inactive); in experiment [15], 84.3 µM (inactive); in experiment [16], > 100 µM (inactive); in experiment [17] it was 56.5 µM (inactive); in experiment [18], > 100 µM (inactive); in experiment [19], 32.8 µM (inactive).
In the case of `COC(OC)c1cc2c(cc1C(=O)[C@@]13CCC[C@@H]1NC(=O)O3)OCO2`, the GI50 is 78.5 µM (inactive) in [2]; > 100 µM (inactive) in experiment [4]; 52.2 µM (inactive) in [5]; > 100 µM (inactive) in [6]; > 100 µM (inactive) in [7]; > 100 µM (inactive) in [8]. In addition, the GI50 in experiment [10], in [11], in experiment [12], in [13], in experiment [14] and in [15] was > 100 µM (inactive) in each case. The GI50 is > 100 µM (inactive) in [16], 60.3 µM (inactive) in experiment [17], > 100 µM (inactive) in experiment [18] and > 100 µM (inactive) in [19].
Turning to `CN(C)C(=Nc1nc(N(C)C)s[s+]1)N(C)C`, the GI50 in experiment [1], in [2], in [3], in [4], in experiment [5] and in [6] was > 100 µM (inactive) in each case. Moreover, the GI50 is > 100 µM (inactive) in [7]; > 100 µM (inactive) in experiment [8]; > 100 µM in [9]; > 100 µM (inactive) in experiment [10]; > 100 µM (inactive) in experiment [11]; > 100 µM (inactive) in experiment [12]. Also, the GI50 is > 100 µM (inactive) in [14]; 72.8 µM (inactive) in experiment [15]; > 100 µM (inactive) in experiment [16]; > 100 µM (inactive) in experiment [17]; > 100 µM (inactive) in experiment [18].
Turning to `Cc1nc(C(N)=S)sc1C(=O)/C=C/c1cccc(O)c1`, the GI50 in [1], in [2], in experiment [3], in experiment [4], in experiment [5] and in experiment [6] was > 100 µM (inactive) each time. In addition, the GI50 in [7] is > 100 µM (inactive); in experiment [8] it was 60.4 µM (inactive); in experiment [9] it was > 100 µM; in experiment [10], > 100 µM (inactive); in [11], > 100 µM (inactive); in experiment [12], > 100 µM (inactive). Further, the GI50 in experiment [13] is > 100 µM (inactive); in experiment [14] it was 21.9 µM (inactive); in [15], > 100 µM (inactive); in experiment [16], > 100 µM (inactive); in experiment [17] it was > 100 µM (inactive); in [18], > 100 µM (inactive).
Take `COc1ccc(N2C(=O)C3c4[nH]c5ccccc5c4C4CCC(C(C)(C)C)CC4C3C2=O)cc1OC` (stereo unspecified): the GI50 in experiment [1] was 48.8 µM (inactive); in experiment [2], 34.6 µM (inactive); in [3], 16.1 µM (inactive); in experiment [4], 71.1 µM (inactive); in experiment [5] it was 14.8 µM (inactive); in experiment [6], 17.8 µM (inactive). For the same compound, the GI50 in experiment [8] was 20.5 µM (inactive); in experiment [9], 35 µM; in [10] it was 20.4 µM (inactive); in experiment [11], 35.8 µM (inactive); in experiment [12] it was 18.2 µM (inactive); in [14], 15.6 µM (inactive). Further, the GI50 in experiment [15] is 20 µM (inactive); in experiment [17] it was 34.4 µM (inactive); in experiment [18] it was 19.9 µM (inactive); in [19] it was 16.1 µM (inactive).
In the case of `COC(=O)N/N=C(\C)CC(=O)Nc1ccc(Cl)cc1`, the GI50 is > 100 µM (inactive) in [1]; > 100 µM (inactive) in experiment [2]; > 100 µM (inactive) in experiment [3]; > 100 µM (inactive) in experiment [4]; 42.6 µM (inactive) in [5]; > 100 µM (inactive) in experiment [6]. The GI50 in experiment [7] was > 100 µM (inactive); in experiment [8] it was > 100 µM (inactive); in [10] it was > 100 µM (inactive); in [11], 46.7 µM (inactive); in experiment [12], > 100 µM (inactive); in [13], > 100 µM (inactive). The GI50 in [14] was > 100 µM (inactive); in experiment [15] it was > 100 µM (inactive); in experiment [16] it was > 100 µM (inactive); in experiment [17] it was 67.3 µM (inactive); in experiment [18], > 100 µM (inactive); in [19] it was > 100 µM (inactive).
`CCn1c2ccccc2c(=O)c2c(OC)ccc(OC)c21`: the GI50 in [2] is > 83.8 µM (inactive); in experiment [3], 55.6 µM (inactive); in [5], 32.5 µM (inactive); in experiment [6] it was 51.3 µM (inactive); in [7], 47.6 µM (inactive); in experiment [8] it was 39 µM (inactive). The GI50 in experiment [9] was 45.9 µM; in [10], 64.9 µM (inactive); in experiment [11], > 66.5 µM (inactive); in experiment [12] it was 56.8 µM (inactive); in experiment [13], 34 µM (inactive); in [14] it was 42.5 µM (inactive). Besides, the GI50 in experiment [15] was 32.2 µM (inactive); in experiment [17], 25.4 µM (inactive); in experiment [18] it was 25.4 µM (inactive); in experiment [19], 51.1 µM (inactive).

The record behind these values is ChEMBL document CHEMBL1201862, “PubChem BioAssay data set” (2004).
